The source made the active and inactive calls. No cut-off for these calls is given here.
Key:
[1] = test system: Radical scavenging activity; experiment: Antioxidant activity assessed as DPPH radical scavenging activity at 50 uM after 30 mins by spectrophotometry; assay type: functional
[2] = target: T1, Xanthine dehydrogenase/oxidase (Rattus norvegicus, UniProt P22985); experiment: Inhibition of rat liver xanthine oxidase at 75 uM after 2 hrs by spectrophotometry; conditions: for inhibition (INH): 75 µM
[3] = Antioxidant activity assessed as superoxide anion scavenging activity at 50 uM after 5 mins by spectrophotometry; assay type: functional
[4] = test system: Liver; experiment: Inhibition of lipid peroxidation in Sprague-Dawley rat liver homogenate assessed as malondialdehyde formation after 1 hr by TBARS assay; assay type: functional, tissue-based
[5] = test system: PC-12; experiment: Neuroprotective activity against H2O2-induced injury in rat PC12 cells at 12.5 to 50 uM treated 2 hrs before H2O2 challenge measured after 4 hrs by MTT assay; assay type: functional, cell-based
[6] = target: T1, Xanthine dehydrogenase/oxidase; experiment: Inhibition of rat liver xanthine oxidase after 2 hrs by spectrophotometry
[7] = Iron chelating activity assessed as inhibition of ferrozine-Fe2+ complex formation at 150 uM after 10 mins by spectrophotometry; assay type: functional
[8] = Iron chelating activity assessed as inhibition of ferrozine-Fe2+ complex formation after 10 mins by spectrophotometry; assay type: functional
[9] = test system: PC-12; experiment: Neuroprotective activity against H2O2-induced injury in rat PC12 cells treated 2 hrs before H2O2 challenge measured after 4 hrs by MTT assay; assay type: functional, cell-based
[10] = test system: PC-12; experiment: Neuroprotective activity against H2O2-induced injury in rat PC12 cells assessed as increase in cell viability at 50 uM treated 2 hrs before H2O2 challenge measured after 4 hrs by MTT assay; assay type: functional
[11] = test system: Liver; experiment: Ratio of 2,3-dehydrosilybin IC50 to compound IC50 for inhibition of lipid peroxidation in Sprague-Dawley rat liver homogenate; assay type: functional, tissue-based
[12] = test system: Liver; experiment: Ratio of quercetin IC50 to compound IC50 for inhibition of lipid peroxidation in Sprague-Dawley rat liver homogenate; assay type: functional, tissue-based
[13] = Ratio of 2,3-dehydrosilybin EC50 to compound EC50 for iron chelating activity; assay type: functional
[14] = test system: Liver; experiment: Ratio of silybin IC50 to compound IC50 for inhibition of lipid peroxidation in Sprague-Dawley rat liver homogenate; assay type: functional, tissue-based
[15] = Ratio of quercetin EC50 to compound EC50 for iron chelating activity
[16] = test system: Radical scavenging activity; experiment: Antioxidant activity assessed as DPPH radical scavenging activity after 30 mins by spectrophotometry; assay type: functional
[17] = Antioxidant activity assessed as superoxide anion scavenging activity after 5 mins by spectrophotometry; assay type: functional

T1 sequence (P22985 whole entry): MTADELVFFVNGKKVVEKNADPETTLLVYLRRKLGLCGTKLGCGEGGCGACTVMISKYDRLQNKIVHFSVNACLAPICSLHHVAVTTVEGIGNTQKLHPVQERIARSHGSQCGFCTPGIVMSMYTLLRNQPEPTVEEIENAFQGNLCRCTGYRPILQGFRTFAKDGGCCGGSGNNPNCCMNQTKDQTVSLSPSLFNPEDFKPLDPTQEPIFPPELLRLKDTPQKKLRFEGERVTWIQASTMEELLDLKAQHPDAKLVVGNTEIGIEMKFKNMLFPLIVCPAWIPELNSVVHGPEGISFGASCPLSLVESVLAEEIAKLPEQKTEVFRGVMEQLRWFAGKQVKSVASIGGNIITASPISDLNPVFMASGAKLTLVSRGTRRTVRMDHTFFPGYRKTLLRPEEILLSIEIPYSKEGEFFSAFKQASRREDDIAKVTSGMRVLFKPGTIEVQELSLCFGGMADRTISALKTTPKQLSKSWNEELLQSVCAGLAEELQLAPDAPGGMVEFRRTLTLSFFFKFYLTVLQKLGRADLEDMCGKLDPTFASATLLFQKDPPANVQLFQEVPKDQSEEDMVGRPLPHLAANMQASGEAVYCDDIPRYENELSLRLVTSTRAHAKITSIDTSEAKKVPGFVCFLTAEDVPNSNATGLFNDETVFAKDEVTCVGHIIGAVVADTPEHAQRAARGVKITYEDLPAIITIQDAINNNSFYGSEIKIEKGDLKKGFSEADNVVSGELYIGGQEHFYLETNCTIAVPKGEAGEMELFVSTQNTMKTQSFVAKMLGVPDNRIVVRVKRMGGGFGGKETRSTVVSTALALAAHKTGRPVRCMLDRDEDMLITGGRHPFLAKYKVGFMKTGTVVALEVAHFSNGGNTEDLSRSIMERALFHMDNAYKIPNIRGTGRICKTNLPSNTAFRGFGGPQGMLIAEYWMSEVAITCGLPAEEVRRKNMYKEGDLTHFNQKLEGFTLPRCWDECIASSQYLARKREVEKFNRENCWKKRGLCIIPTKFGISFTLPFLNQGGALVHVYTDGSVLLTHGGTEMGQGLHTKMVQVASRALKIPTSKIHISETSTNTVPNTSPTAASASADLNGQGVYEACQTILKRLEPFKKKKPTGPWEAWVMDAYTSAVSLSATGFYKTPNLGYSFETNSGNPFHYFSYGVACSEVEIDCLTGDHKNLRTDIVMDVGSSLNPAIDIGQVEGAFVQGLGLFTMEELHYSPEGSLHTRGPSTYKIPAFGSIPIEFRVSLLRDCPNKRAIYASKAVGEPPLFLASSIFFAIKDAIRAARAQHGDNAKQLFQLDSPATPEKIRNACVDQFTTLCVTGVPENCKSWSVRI

Row | Structure (SMILES) | inhibition (INH) [2] | Activity [3] | IC50 [4] [µM] | inhibition [7] [%] | EC50 [8] [µM] | EC50 [9] [µM] | Activity [10] [%] | other results
1 | O=C1O[C@H]([C@@H](O)CO)C(O)=C1O | – | – | – | – | – | – | – | inhibition [1]: 12.6%
2 | COc1cc(C2Oc3cc(-c4oc5cc(OCC(=O)Nc6ccc(C)cc6)cc(O)c5c(=O)c4O)ccc3OC2CO)ccc1OCC(=O)Nc1ccc(C)cc1 (racemic) | Active | inactive | 74.1 | – | – | – | – | Activity [5]: Active
3 | CCOC(=O)COc1cc(O)c2c(=O)c(O)c(-c3ccc4c(c3)OC(c3ccc(OCC(=O)OCC)c(OC)c3)C(CO)O4)oc2c1 (racemic) | – | inactive | 36.4 | 53.5 | 116 | – | – | IC50 [6]: 70.8 µM; inhibition at 75 µM [2]: > 50%
4 | C=CCOc1cc(O)c2c(=O)c(O)c(-c3ccc4c(c3)OC(c3ccc(OCC=C)c(OC)c3)C(CO)O4)oc2c1 (racemic) | – | inactive | 22.6 | 72.5 | 129 | 20.5 | 40 | –
5 | C=CCOc1cc(O)c2c(=O)c(OCC=C)c(-c3ccc4c(c3)OC(c3ccc(OCC=C)c(OC)c3)C(CO)O4)oc2c1 (racemic) | – | inactive | 54.8 | – | – | – | – | –
6 | COc1cc(C2Oc3cc(-c4oc5cc(OCC(=O)Nc6ccc(Cl)cc6)cc(O)c5c(=O)c4O)ccc3OC2CO)ccc1OCC(=O)Nc1ccc(Cl)cc1 (racemic) | Active | inactive | 153 | – | – | – | – | Activity [5]: Active
7 | COc1cc(C2Oc3cc(-c4oc5cc(OCC=C(C)C)cc(O)c5c(=O)c4O)ccc3OC2CO)ccc1OCC=C(C)C (racemic) | – | inactive | 28.1 | – | 138 | 47.4 | 40 | inhibition at 75 µM [2]: 18.9%
8 | COc1ccc(NC(=O)COc2cc(O)c3c(=O)c(O)c(-c4ccc5c(c4)OC(c4ccc(OCC(=O)Nc6ccc(OC)cc6)c(OC)c4)C(CO)O5)oc3c2)cc1 (racemic) | Active | inactive | 37 | – | – | – | – | Activity [5]: Active
9 | COc1cc(C2Oc3cc(-c4oc5cc(OCC(=O)Nc6ccc(Cl)cc6Cl)cc(O)c5c(=O)c4O)ccc3OC2CO)ccc1OCC(=O)Nc1ccc(Cl)cc1Cl (racemic) | Active | inactive | 20.7 | – | – | – | – | Activity [5]: Active
10 | COc1cc(C2Oc3cc(-c4oc5cc(OCC(=O)N6CCCC6)cc(O)c5c(=O)c4O)ccc3OC2CO)ccc1OCC(=O)N1CCCC1 (racemic) | Active | inactive | 0.9 | 87 | 23.2 | – | – | inhibition [1]: 44.2%; Ratio IC50 [11]: 11; Ratio IC50 [12]: 5; Ratio EC50 [13]: 4; Ratio IC50 [14]: 93; Ratio EC50 [15]: 7; Activity [5]: Active
11 | CCN(CC)C(=O)COc1cc(O)c2c(=O)c(O)c(-c3ccc4c(c3)OC(c3ccc(OCC(=O)N(CC)CC)c(OC)c3)C(CO)O4)oc2c1 (racemic) | Active | inactive | 5.8 | 63 | 59.9 | – | – | Activity [5]: Active
12 | CCN(CC)C(=O)COc1cc(O)c2c(=O)c(O)c(-c3ccc4c(c3)OC(c3ccc(O)c(OC)c3)C(CO)O4)oc2c1 (racemic) | Active | Active | 0.7 | 52.5 | 113 | – | – | inhibition [1]: 46.4%
13 | C=CCCOc1cc(O)c2c(=O)c(O)c(-c3ccc4c(c3)OC(c3ccc(OCCC=C)c(OC)c3)C(CO)O4)oc2c1 (racemic) | – | inactive | 36.2 | – | 145 | 37.7 | 40 | –
14 | C=CCCOc1cc(O)c2c(=O)c(OCCC=C)c(-c3ccc4c(c3)OC(c3ccc(OCCC=C)c(OC)c3)C(CO)O4)oc2c1 (racemic) | – | inactive | 67.5 | – | – | 79.4 | 40 | –
15 | COc1ccc(C(=O)OCC2Oc3ccc(-c4oc5cc(O)cc(O)c5c(=O)c4O)cc3OC2c2ccc(O)c(OC)c2)cc1 (racemic) | – | inactive | 104 | – | – | – | – | –
16 | COc1cc(C2Oc3cc(-c4oc5cc(O)cc(O)c5c(=O)c4O)ccc3OC2COC(=O)c2cccc(Cl)c2)ccc1O (racemic) | – | inactive | 16.9 | – | – | 46.5 | 40 | –
17 | COc1cc(C2Oc3cc(-c4oc5cc(OCC=C(C)C)cc(O)c5c(=O)c4O)ccc3OC2CO)ccc1O (racemic) | – | Active | 23.3 | 51 | 137 | 32 | 40 | –
18 | Oc1ncnc2[nH]ncc12 [ALLOPURINOL] | – | – | – | – | – | – | – | IC50 [6]: 21.2 µM
19 | COc1cc(C2Oc3cc(-c4oc5cc(O)cc(O)c5c(=O)c4O)ccc3OC2CO)ccc1O (stereo unspecified) [DEHYDROSILYLBIN] | – | – | 10.7 | 58 | 118 | 30.2 | 40 | inhibition [1]: 42.2%; IC50 [6]: 80.3 µM
20 | O=C([O-])CN(CCN(CC(=O)[O-])CC(=O)O)CC(=O)O.[Na+].[Na+] [EDETATE DISODIUM ANHYDROUS] | – | – | – | 91.5 | 16.4 | – | – | –
21 | O=c1c(O)c(-c2ccc(O)c(O)c2)oc2cc(O)cc(O)c12 [QUERCETIN] | – | – | 4.6 | 43.5 | 188 | 58.4 | – | EC50 [16]: 3.4 µM; EC50 [17]: 38.6 µM
22 | COc1cc(C2Oc3cc([C@H]4Oc5cc(O)cc(O)c5C(=O)[C@@H]4O)ccc3OC2CO)ccc1O (stereo partly specified) [SILIBININ] | Not Active | – | 84.8 | – | – | – | – | IC50 [6]: 80.3 µM
